Legend:
[1] = biological target: SARS-CoV-2 3CLpro (Severe acute respiratory syndrome coronavirus 2, UniProt P0DTD1); assay: biochemical
[2] = tested on: SARS-CoV-2; assay: microbe, parasite or virus in culture; assay type: cell-based; settings: Severe acute respiratory syndrome coronavirus 2, read-out: Antiviral EC50

Compound	IC50 [1]	EC50 [2]
O=C(Cn1nnc2ccccc21)N(Cc1ccc(-c2ccccc2)cc1)Cc1ccsc1	> 100 µM	5 to 50 µM
O=C(Cn1nnc2ccccc21)N(Cc1ccsc1)c1ccc(-c2ccccc2)cc1	–	50 to 100 µM
O=C(Cn1ccc2ccccc21)N(Cc1ccsc1)c1ccc(-c2ccccc2)cc1	> 100 µM	> 100 µM
O=C(Cn1nnc2ccccc21)N(Cc1ccc(-c2ccccn2)cc1)Cc1ccsc1	50 to 100 µM	> 100 µM

Source: patent publication US20240101541A1 (priority 2020, published 2024)
